Laboratory results as given in patent US20070128217A1 (priority 2003, published 2007).

Legend:
[1] = test system: antibodies in sera from SARS patients (sera 1a, 1b, 2, 6, 37, 62, London, SARS-yellow, SARS-green); assay type: binding, human; parameters: Binding of serum 6 to linear peptides of protein X1 of SARS-CoV Urbani / Binding of serum 37 to linear peptides of protein X1 of SARS-CoV Urbani / Binding of serum 6 to looped/cyclic peptide (PEPSCAN-ELISA) / Binding of serum 37 to looped/cyclic peptide (PEPSCAN-ELISA) / Binding of serum 37 to looped/cyclic peptides of protein X1 of SARS-CoV Urbani / Binding of serum 6 to linear peptides of protein X2 / Binding of serum 37 to linear peptides of protein X2 / Binding of serum 37 to looped/cyclic peptides of protein X2 of SARS-CoV Urbani / Binding of serum 6 to linear peptides of protein M of SARS-CoV Urbani / Binding of serum 37 to linear peptides of protein M of SARS-CoV Urbani / Binding of serum 6 to looped/cyclic peptides of protein M of SARS-CoV Urbani / Binding of serum 37 to looped/cyclic peptides of protein M of SARS-CoV Urbani / Binding of serum 6 to linear peptides of protein X3 of SARS-CoV Urbani / Binding of serum 37 to linear peptides of protein X3 of SARS-CoV Urbani / Binding of serum 37 to looped/cyclic peptides of protein X3 of SARS-CoV Urbani / Binding of serum 6 to linear peptides of protein X4 of SARS-CoV Urbani / Binding of serum 37 to linear peptides of protein X4 of SARS-CoV Urbani / Binding of serum 37 to looped/cyclic peptides of protein X4 of SARS-CoV Urbani / Binding of serum 6 to linear peptides of protein X5 of SARS-CoV Urbani / Binding of serum 37 to linear peptides of protein X5 of SARS-CoV Urbani / Binding of serum 37 to looped/cyclic peptides of protein X5 of SARS-CoV Urbani / Binding of serum 6 to linear peptides of protein N of SARS-CoV Urbani / Binding of serum 37 to linear peptides of protein N of SARS-CoV Urbani / Binding of serum 6 to linear peptide (PEPSCAN-ELISA) / Binding of serum 1a to looped/cyclic peptides of protein N of SARS-CoV Urbani / Binding of serum 1b to looped/cyclic peptides of protein N of SARS-CoV Urbani / Binding of serum 2 to looped/cyclic peptides of protein N of SARS-CoV Urbani / Binding of serum 6 to looped/cyclic peptides of protein N of SARS-CoV Urbani / Binding of serum 37 to looped/cyclic peptides of protein N of SARS-CoV Urbani / Binding of serum 62 to looped/cyclic peptides of protein N of SARS-CoV Urbani / Binding of serum London to looped/cyclic peptides of protein N of SARS-CoV Urbani / Binding of serum SARS-green to looped/cyclic peptides of protein N of SARS-CoV Urbani: unit not given here
[2] = test system: control sera (pooled serum of ten healthy LUMC hospital workers; commercial negative donor pooled serum from the Dutch bloodbank); assay type: binding, human; parameters: Binding of Control serum LUMC to linear peptides / Binding of Control serum Blood-bank to linear peptides / Binding of Control serum LUMC to looped peptides / Binding of Control Serum Blood-Bank to Looped peptides / Binding of Control serum LUMC to linear peptides of the protein M of SARS-CoV Urbani / Binding of Control serum Blood-bank to linear peptides of the protein M of SARS-CoV Urbani / Binding of Control serum LUMC to looped peptides of the protein M of SARS-CoV Urbani / Binding of Control Serum Blood-Bank to Looped peptides of the protein M of SARS-CoV Urbani: unit not given here
[3] = test system: rabbit serum obtained by immunizing a rabbit with the SARS-CoV strain Frankfurt 1; assay type: binding; parameters: Binding of a rabbit serum to linear peptides / Binding of a rabbit serum to looped peptides / Rabbit serum linear peptides / Rabbit serum looped peptides / Binding of a rabbit serum to linear peptides of protein N of SARS-CoV Urbani (Rabbit serum linear peptides) / Binding of a rabbit serum to looped/cyclic peptides of protein N of SARS-CoV Urbani (Rabbit serum looped peptides): unit not given here

ISPKFTTSLSLHKLL
Binding of serum 1a to linear peptides of protein X2 [1]: 0.5
Binding of serum 1a to looped/cyclic peptides of protein X2 of SARS-CoV Urbani [1]: 0.5
Binding of serum 1b to linear peptides of protein X2 [1]: 0.4
Binding of serum 1b to looped/cyclic peptides of protein X2 of SARS-CoV Urbani [1]: 0.5
Binding of serum 2 to linear peptides of protein X2 [1]: 0.4
Binding of serum 2 to looped/cyclic peptides of protein X2 of SARS-CoV Urbani [1]: 0.4
Binding of serum 6 to linear peptides of protein X2 [1]: 0.5
Binding of serum 6 to looped/cyclic peptides of protein X2 of SARS-CoV Urbani [1]: 0.4
Binding of serum 37 to linear peptides of protein X2 [1]: 0.5
Binding of serum 37 to looped/cyclic peptides of protein X2 of SARS-CoV Urbani [1]: 0.4
Binding of serum 62 to linear peptides of protein X2 [1]: 0.6
Binding of serum 62 to looped/cyclic peptides of protein X2 of SARS-CoV Urbani [1]: 0.7
Binding of serum London to linear peptides of protein X2 [1]: 0.4
Binding of serum London to looped/cyclic peptides of protein X2 of SARS-CoV Urbani [1]: 0.3
Binding of serum SARS-green to linear peptides of protein X2 [1]: 0.5
Binding of serum SARS-green to looped/cyclic peptides of protein X2 of SARS-CoV Urbani [1]: 0.2
Binding of serum SARS-yellow to linear peptides of protein X2 [1]: 0.4
Binding of serum SARS-yellow to looped/cyclic peptides of protein X2 of SARS-CoV Urbani [1]: 0.3
Binding of Control Serum Blood-Bank to Looped peptides [2]: 0.7
Binding of Control serum Blood-bank to linear peptides [2]: 0.7
Binding of Control serum LUMC to linear peptides [2]: 0.3
Binding of Control serum LUMC to looped peptides [2]: 0.5
Binding of a rabbit serum to linear peptides [3]: 0.3
Binding of a rabbit serum to looped peptides [3]: 0.4

RHTYQLRARSVSPKL
Binding of serum 1a to linear peptides of protein X4 of SARS-CoV Urbani [1]: 0.8
Binding of serum 1a to looped/cyclic peptides of protein X4 of SARS-CoV Urbani [1]: 0.8
Binding of serum 1b to linear peptides of protein X4 of SARS-CoV Urbani [1]: 0.6
Binding of serum 1b to looped/cyclic peptides of protein X4 of SARS-CoV Urbani [1]: 0.5
Binding of serum 2 to linear peptides of protein X4 of SARS-CoV Urbani [1]: 0.6
Binding of serum 2 to looped/cyclic peptides of protein X4 of SARS-CoV Urbani [1]: 0.7
Binding of serum 6 to linear peptides of protein X4 of SARS-CoV Urbani [1]: 1.1
Binding of serum 6 to looped/cyclic peptides of protein X4 of SARS-CoV Urbani [1]: 0.8
Binding of serum 37 to linear peptides of protein X4 of SARS-CoV Urbani [1]: 0.9
Binding of serum 37 to looped/cyclic peptides of protein X4 of SARS-CoV Urbani [1]: 0.7
Binding of serum 62 to linear peptides of protein X4 of SARS-CoV Urbani [1]: 0.8
Binding of serum 62 to looped/cyclic peptides of protein X4 of SARS-CoV Urbani [1]: 0.6
Binding of serum London to linear peptides of protein X4 of SARS-CoV Urbani [1]: 0.8
Binding of serum London to looped/cyclic peptides of protein X4 of SARS-CoV Urbani [1]: 0.3
Binding of serum SARS-green to linear peptides of protein X4 of SARS-CoV Urbani [1]: 0.7
Binding of serum SARS-green to looped/cyclic peptides of protein X4 of SARS-CoV Urbani [1]: 0.4
Binding of serum SARS-yellow to linear peptides of protein X4 of SARS-CoV Urbani [1]: 0.6
Binding of serum SARS-yellow to looped/cyclic peptides of protein X4 of SARS-CoV Urbani [1]: 0.7
Binding of Control Serum Blood-Bank to Looped peptides [2]: 0.6
Binding of Control serum Blood-bank to linear peptides [2]: 0.8
Binding of Control serum LUMC to linear peptides [2]: 0.7
Binding of Control serum LUMC to looped peptides [2]: 0.7
Recognition of the peptide by the rabbit serum [3]: recognized

LLLLFVTIYSHLLLV
Binding of serum 1a to linear peptides of protein X1 of SARS-CoV Urbani [1]: 0.7
Binding of serum 1a to looped/cyclic peptide (PEPSCAN-ELISA) [1]: 0.5
Binding of serum 1b to linear peptides of protein X1 of SARS-CoV Urbani [1]: 0.5
Binding of serum 1b to looped/cyclic peptide (PEPSCAN-ELISA) [1]: 0.3
Binding of serum 2 to linear peptides of protein X1 of SARS-CoV Urbani [1]: 0.8
Binding of serum 2 to looped/cyclic peptide (PEPSCAN-ELISA) [1]: 0.5
Binding of serum 6 to linear peptides of protein X1 of SARS-CoV Urbani [1]: 0.4
Binding of serum 6 to looped/cyclic peptide (PEPSCAN-ELISA) [1]: 0.3
Binding of serum 37 to linear peptides of protein X1 of SARS-CoV Urbani [1]: 0.5
Binding of serum 37 to looped/cyclic peptide (PEPSCAN-ELISA) [1]: 0.6
Binding of serum 62 to linear peptides of protein X1 of SARS-CoV Urbani [1]: 0.4
Binding of serum 62 to looped/cyclic peptide (PEPSCAN-ELISA) [1]: 0.6
Binding of serum London to linear peptides of protein X1 of SARS-CoV Urbani [1]: 0.2
Binding of serum London to looped/cyclic peptide (PEPSCAN-ELISA) [1]: 0.2
Binding of serum SARS-green to linear peptides of protein X1 of SARS-CoV Urbani [1]: 0.3
Binding of serum SARS-green to looped/cyclic peptide (PEPSCAN-ELISA) [1]: 0.2
Binding of serum SARS-yellow to linear peptides of protein X1 of SARS-CoV Urbani [1]: 0.3
Binding of serum SARS-yellow to looped/cyclic peptide (PEPSCAN-ELISA) [1]: 0.5
Binding of Control Serum Blood-Bank to Looped peptides [2]: 0.6
Binding of Control serum Blood-bank to linear peptides [2]: 0.5
Binding of Control serum LUMC to linear peptides [2]: 0.6
Binding of Control serum LUMC to looped peptides [2]: 0.5
Binding of a rabbit serum to linear peptides [3]: 0.1
Binding of a rabbit serum to looped peptides [3]: 0.5

LIQQWIQFMMSRRRL
Binding of serum 1a to linear peptides of protein X2 [1]: 0.7
Binding of serum 1a to looped/cyclic peptides of protein X2 of SARS-CoV Urbani [1]: 0.5
Binding of serum 1b to linear peptides of protein X2 [1]: 0.4
Binding of serum 1b to looped/cyclic peptides of protein X2 of SARS-CoV Urbani [1]: 0.5
Binding of serum 2 to linear peptides of protein X2 [1]: 0.4
Binding of serum 2 to looped/cyclic peptides of protein X2 of SARS-CoV Urbani [1]: 0.8
Binding of serum 6 to linear peptides of protein X2 [1]: 0.7
Binding of serum 6 to looped/cyclic peptides of protein X2 of SARS-CoV Urbani [1]: 0.5
Binding of serum 37 to linear peptides of protein X2 [1]: 0.6
Binding of serum 37 to looped/cyclic peptides of protein X2 of SARS-CoV Urbani [1]: 0.5
Binding of serum 62 to linear peptides of protein X2 [1]: 0.5
Binding of serum 62 to looped/cyclic peptides of protein X2 of SARS-CoV Urbani [1]: 0.8
Binding of serum London to linear peptides of protein X2 [1]: 0.5
Binding of serum London to looped/cyclic peptides of protein X2 of SARS-CoV Urbani [1]: 0.9
Binding of serum SARS-green to linear peptides of protein X2 [1]: 0.4
Binding of serum SARS-green to looped/cyclic peptides of protein X2 of SARS-CoV Urbani [1]: 0.3
Binding of serum SARS-yellow to linear peptides of protein X2 [1]: 0.8
Binding of serum SARS-yellow to looped/cyclic peptides of protein X2 of SARS-CoV Urbani [1]: 0.5
Binding of Control Serum Blood-Bank to Looped peptides [2]: 0.4
Binding of Control serum Blood-bank to linear peptides [2]: 0.7
Binding of Control serum LUMC to linear peptides [2]: 0.5
Binding of Control serum LUMC to looped peptides [2]: 0.6
Binding of a rabbit serum to linear peptides [3]: 0.3
Binding of a rabbit serum to looped peptides [3]: 1.2

AVYRINWVTGGIAIA
Binding of serum 1a to linear peptides of protein M of SARS-CoV Urbani [1]: 0.7
Binding of serum 1a to looped/cyclic peptides of protein M of SARS-CoV Urbani [1]: 0.8
Binding of serum 1b to linear peptides of protein M of SARS-CoV Urbani [1]: 0.6
Binding of serum 1b to looped/cyclic peptides of protein M of SARS-CoV Urbani [1]: 0.4
Binding of serum 2 to linear peptides of protein M of SARS-CoV Urbani [1]: 0.6
Binding of serum 2 to looped/cyclic peptides of protein M of SARS-CoV Urbani [1]: 0.6
Binding of serum 6 to linear peptides of protein M of SARS-CoV Urbani [1]: 0.2
Binding of serum 6 to looped/cyclic peptides of protein M of SARS-CoV Urbani [1]: 0.6
Binding of serum 37 to linear peptides of protein M of SARS-CoV Urbani [1]: 0.8
Binding of serum 37 to looped/cyclic peptides of protein M of SARS-CoV Urbani [1]: 0.7
Binding of serum 62 to linear peptides of protein M of SARS-CoV Urbani [1]: 0.8
Binding of serum 62 to looped/cyclic peptides of protein M of SARS-CoV Urbani [1]: 0.7
Binding of serum London to linear peptides of protein M of SARS-CoV Urbani [1]: 0.3
Binding of serum London to looped/cyclic peptides of protein M of SARS-CoV Urbani [1]: 0.2
Binding of serum SARS-green to linear peptides of protein M of SARS-CoV Urbani [1]: 0.3
Binding of serum SARS-green to looped/cyclic peptides of protein M of SARS-CoV Urbani [1]: 0.4
Binding of serum SARS-yellow to linear peptides of protein M of SARS-CoV Urbani [1]: 0.1
Binding of serum SARS-yellow to looped/cyclic peptides of protein M of SARS-CoV Urbani [1]: 0.7
Binding of Control Serum Blood-Bank to Looped peptides of the protein M of SARS-CoV Urbani [2]: 0.8
Binding of Control serum Blood-bank to linear peptides of the protein M of SARS-CoV Urbani [2]: 0.7
Binding of Control serum LUMC to linear peptides of the protein M of SARS-CoV Urbani [2]: 0.5
Binding of Control serum LUMC to looped peptides of the protein M of SARS-CoV Urbani [2]: 0.8
Rabbit serum linear peptides [3]: 0.4
Rabbit serum looped peptides [3]: 0.5
